≈ marks a conversion by molar mass, not a printed value. Read-outs that look alike come from different tables or passages of the source. Positions of bridges follow the written chain, without caps; N, C: chain ends. Non-standard residues stand in square brackets, D forms with d. Residues, ends and D or L forms follow the SMILES beside them. R8 = C=CCCCCCC[C@@](C)(N)C(=O)O; S5 = C=CCCC[C@](C)(N)C(=O)O
How the values were obtained:
A. baumannii = tested on: A. baumannii
Description: (§1) According to the protocol of Clinical & Laboratory Standards Institute, the minimum inhibitory concentration (MIC) of the linear and stapled peptides against a panel of gram-positive and gram-negative bacteria was determined by the broth microdilution method. […]
(§2) Bacterial strains and culture
(§3) Bacterial type stains ATCC 25923 S. aureus, ATCC 12228 S. epidermidis, ATCC […]
(§4) aeruginosa and ATCC 13883 K. pneumoniae were obtained from Shanghai Bioresource Collection Center. The bacterial culture medium was purchased from Oxoid and autoclaved according to the instructions from manufacturer. The isolated strains were cultured in Mueller Hinton II broth and continuously shaken at 140 rpm for 18 hours to the middle of the exponential growth phase at 37 °C with an OD value of 0.4-0.5.
(§5) Bacterial suspensions with an OD value of 0.1, approximately […], were then diluted for further assays.
(§6) The minimal inhibition concentration (MIC) of the linear and stapled peptides was determined using the microbroth dilution method from the Clinical and Laboratory Standards Institute (CLSI)[2, 3]. Bacterial suspensions of 10 6 CFU/mL were prepared in MH-II broth and peptide solutions at varying concentrations were prepared in phosphate buffer saline (PBS). Then 50 μL peptide solution and 50 μL bacterial suspension were mixed in a 96 -well plate. Plates were incubated for 24 hours at 37 °C.
(§7) 10 μL AlamarBlue cell viability reagent (ThermoFisher Scientific, UK) was added to each well, then the plate was re -incubated for a further 2 hours at 37 °C. The MIC was recorded as the minimum concentration of peptides required to completely in hibit bacteria growth. For serum stability assessment, the peptide solutions were pre - incubated with 50% human serum for 4 h before the MIC determination. Experiments were performed in 3 independent measurements. […]

E. faecalis = tested on: E. faecalis
Description: as §1, §2, §3, §4, §5, §6, §7

S. epidermidis = tested on: S. epidermidis
Description: as §1, §2, §3, §4, §5, §6, §7

P. aeruginosa = tested on: P. aeruginosa
Description: as §1, §2, §3, §4, §5, §6, §7

S. aureus = tested on: S. aureus
Description: as §1, §2, §3, §4, §5, §6, §7

E. coli = tested on: E. coli
Description: as §1, §2, §3, §4, §5, §6, §7

K. pneumoniae = tested on: K. pneumoniae
Description: as §1, §2, §3, §4, §5, §6, §7

Serum stability assay = assay type: in vitro ADME, human; conditions: for metabolised at 1 h, 0.4 mg/mL: human serum in pH 7.4 PBS, 37 °C, RP-HPLC, read-out: fraction hydrolyzed within 1 h; for TD50 (time at which 50% of the peptide is degraded in the presence of serum): human serum, 2 mg/mL peptide in pH 7.4 PBS mixed with serum 1:4, 37 °C, up to 48 h, RP-HPLC UV 220 nm, 3 independent measurements
Excerpt: Maintaining high stability and presenting high compatibility in the complex physiological environment are important criterions for the clinical translation of AMPs. […] The derivatives were mixed with human serum in pH 7.4 PBS, simulating the degradation process of peptides by proteases in vivo. The percentages of intact derivatives were monitored and determined with time according to the PR-HPLC. […]
Serum stability of the linear and stapled peptides was examined by RP -HPLC as previously described. 2 mg/mL peptide solution was prepared in pH 7.4 PBS and incubated with human serum (Gemini, USA) to the final volume ratio of 1:4 at 37 °C.
At various time intervals, 50 μL mixture was added to 50 μL ethanol to terminate the enzymatic hydrolysis. After centrifugation at 10,000 rpm for 10 minutes under 4 °C, […]
the supernatant was collected and analyzed by RP-HPLC, with a UV detector monitored at 220 nm. Record the peak area of the intact peptide and calculate the percentage of remaining peptide based on the integrated area as, Peptide remaining (%) = peak area of remaining peptide/peak area of intact peptide×100%. […]

Row | Compound | MIC A. baumannii (A. baumannii; 24 h) | MIC E. faecalis (E. faecalis; 24 h) | MIC S. epidermidis (S. epidermidis; 24 h) | MIC P. aeruginosa (P. aeruginosa; 24 h) | MIC S. aureus (S. aureus; 24 h) | MIC E. coli (E. coli; 24 h) | MIC K. pneumoniae (K. pneumoniae; 24 h) | metabolised at 1 h, 0.4 mg/mL (Serum stability assay) | TD50 (time at which 50% of the peptide is degraded in the presence of serum) (Serum stability assay) | MIC A. baumannii (A. baumannii; CLSI broth microdilution, MH-II broth, 24 h 37 °C, AlamarBlue, ATCC 19606, 3 independent measurements) | MIC E. faecalis (E. faecalis; CLSI broth microdilution, MH-II broth, 24 h 37 °C, AlamarBlue, ATCC 29212, 3 independent measurements) | MIC S. epidermidis (S. epidermidis; CLSI broth microdilution, MH-II broth, 24 h 37 °C, AlamarBlue, ATCC 12228, 3 independent measurements) | MIC P. aeruginosa (P. aeruginosa; CLSI broth microdilution, MH-II broth, 24 h 37 °C, AlamarBlue, ATCC 27853, 3 independent measurements) | MIC S. aureus (S. aureus; CLSI broth microdilution, MH-II broth, 10^6 CFU/mL, 24 h 37 °C, AlamarBlue, ATCC 25923, 3 independent measurements) | MIC E. coli (E. coli; CLSI broth microdilution, MH-II broth, 24 h 37 °C, AlamarBlue, ATCC 25922, 3 independent measurements) | MIC K. pneumoniae (K. pneumoniae; CLSI broth microdilution, MH-II broth, 24 h 37 °C, AlamarBlue, ATCC 13883, 3 independent measurements)
1 | CC[C@H](C)[C@@H]1NC(=O)[C@H](CCCNC(=N)N)NC(=O)[C@H](CCC(N)=O)NC(=O)[C@](C)(NC(=O)[C@@H](NC(=O)[C@H](CCCNC(=N)N)NC(=O)[C@H](CCCCN)NC(C)=O)[C@@H](C)CC)CCCCCCC=CCCC[C@@](C)(C(=O)N[C@@H](CCCNC(=N)N)C(N)=O)NC(=O)[C@H](Cc2ccccc2)NC(=O)[C@H](CC(=O)O)NC(=O)[C@H](CCCCN)NC1=O [KR-12 (V4, L11)] (Ac-KRI[R8]QRIKDF[S5]R-NH2; staple 4-11) | 128 mg/L (≈ 75.6 µM) | > 256 mg/L | 256 mg/L (≈ 151 µM) | 128 mg/L (≈ 75.6 µM) | 128 mg/L (≈ 75.6 µM) | 128 mg/L (≈ 75.6 µM) | 128 mg/L (≈ 75.6 µM) | – | – | – | – | – | – | – | – | –
2 | CC[C@H](C)[C@H](NC(=O)[C@H](CCCCN)NC(=O)[C@H](CCC(=O)O)NC(=O)[C@H](CCCCN)NC(=O)[C@H](CO)NC(=O)[C@H](CCCCN)NC(=O)[C@H](CCCNC(=N)N)NC(=O)[C@H](Cc1ccccc1)NC(=O)[C@H](Cc1ccccc1)NC(=O)[C@H](CC(=O)O)NC(=O)CNC(=O)[C@H](CC(C)C)NC(=O)[C@@H](N)CC(C)C)C(=O)NCC(=O)N[C@@H](CCCCN)C(=O)N[C@@H](CCC(=O)O)C(=O)N[C@@H](Cc1ccccc1)C(=O)N[C@@H](CCCCN)C(=O)N[C@@H](CCCNC(=N)N)C(=O)N[C@H](C(=O)N[C@H](C(=O)N[C@@H](CCC(N)=O)C(=O)N[C@@H](CCCNC(=N)N)C(=O)N[C@H](C(=O)N[C@@H](CCCCN)C(=O)N[C@@H](CC(=O)O)C(=O)N[C@@H](Cc1ccccc1)C(=O)N[C@@H](CC(C)C)C(=O)N[C@@H](CCCNC(=N)N)C(=O)N[C@@H](CC(N)=O)C(=O)N[C@@H](CC(C)C)C(=O)N[C@H](C(=O)N1CCC[C@H]1C(=O)N[C@@H](CCCNC(=N)N)C(=O)N[C@H](C(=O)N[C@@H](CCC(=O)O)C(=O)N[C@@H](CO)C(=O)O)[C@@H](C)O)C(C)C)[C@@H](C)CC)C(C)C)[C@@H](C)CC [LL-37] | – | – | – | – | – | – | – | > 50% | 0.58 h | – | – | – | – | – | – | –
3 | Ac-KRIVQRIKDFLR-NH2 [KR-12, reference compound] | > 256 mg/L | 128 mg/L | > 256 mg/L | 256 mg/L | 32 mg/L | 128 mg/L | > 256 mg/L | > 50% | 0.78 h | – | – | – | – | – | – | –
4 | polymyxin b [PMB, reference compound] | – | – | – | – | – | – | – | – | – | 4 mg/L | 256 mg/L | 128 mg/L | 8 mg/L | 64 mg/L | 4 mg/L | 16 mg/L
